Assay results as given in patent US20020065227A1, “Charged compounds comprising a nucleic acid binding moiety and uses therefor” (priority 2000, published 2002).
In brackets after ≈: the same amount, converted by molar mass. Like-named read-outs stand apart in the source and are kept apart here.

Key:
[1] = tested on: Candida tropicalis (13803); assay: MIC, antifungal assay; format: cell-based
[2] = tested on: Micrococcus luteus (381); assay: MIC, NCCLS broth microdilution; format: cell-based
[3] = tested on: Candida parapsilosis (10232); assay: MIC, antifungal assay; format: cell-based
[4] = tested on: Streptococcus pneumoniae (49619); assay: MIC, NCCLS broth microdilution; format: cell-based
[5] = tested on: Propionibacterium acnes (33179); assay: MIC, NCCLS broth microdilution; format: cell-based; conditions: anaerobe
[6] = tested on: Esherichia coli (25922); assay: MIC, NCCLS broth microdilution; format: cell-based, Escherichia coli
[7] = tested on: Bacillus cereus (11778); assay: MIC, NCCLS broth microdilution; format: cell-based
[8] = tested on: Corynebacterium Group A (49676); assay: MIC, NCCLS broth microdilution; format: cell-based
[9] = tested on: Staphylococcus epidermidis (12228); assay: MIC, NCCLS broth microdilution; format: cell-based
[10] = tested on: Peptostreptococcus asaccharolytics (29743); assay: MIC, NCCLS broth microdilution; format: cell-based; conditions: anaerobe
[11] = tested on: Enterococcus faecalis (29212); assay: MIC, NCCLS broth microdilution; format: cell-based
[12] = tested on: Pseudomona aeruginosa (27853); assay: MIC, NCCLS broth microdilution; format: cell-based
[13] = tested on: Bacillus subtilis (6633); assay: MIC, NCCLS broth microdilution; format: cell-based
[14] = tested on: Candida albicans (90028); assay: MIC, antifungal assay; format: cell-based
[15] = tested on: Cryptococcus neoformans (90112); assay: MIC, antifungal assay; format: cell-based
[16] = tested on: Candida albicans (38247) (Polyene resistant); assay: MIC, antifungal assay; format: cell-based
[17] = tested on: Clostridium perfringens (13124); assay: microbe, parasite or virus in culture; format: cell-based
[18] = tested on: Enterococcus faecium (51559) (vacomycin resistant); assay: MIC, NCCLS broth microdilution; format: cell-based
[19] = tested on: Staphylococcus aureus (33591) (methicillin resistant); assay: MIC, NCCLS broth microdilution; format: cell-based
[20] = tested on: Streptococcus pyogenes (49339); assay: MIC, NCCLS broth microdilution; format: cell-based
[21] = tested on: Staphylococcus aureus (29213); assay: MIC, NCCLS broth microdilution; format: cell-based
[22] = tested on: Haemophilus influenzae (49247); assay: MIC, NCCLS broth microdilution; format: cell-based
[23] = tested on: Fusarium solani (36031); assay: MIC, antifungal assay; format: cell-based
[24] = tested on: Aspergillus niger (10535); assay: MIC, antifungal assay; format: cell-based
[25] = tested on: Bacillus anthracis; format: cell-based
[26] = tested on: Bacillus cereus (11778); assay: MBC according to NCCLS guideline; format: cell-based
[27] = tested on: Staphylococcus aureus (29213); assay: MBC according to NCCLS guideline; format: cell-based
[28] = tested on: Candida albicans (90028); assay: MBC according to NCCLS guideline; format: cell-based
[29] = tested on: Saccharomyces cerevisiae (44773); assay: MBC according to NCCLS guideline; format: cell-based
[30] = tested on: AGTACT; assay: DNase I footprint titration, AGTACT site; format: binding; conditions: equilibrium association constant Ka; pH 7.0, 22° C.
[31] = tested on: Trichophyto tonsurans (28942); assay: MIC, antifungal assay; format: cell-based
[32] = tested on: ATTACT; assay: DNase I footprint titration, ATTACT site; format: binding; conditions: equilibrium association constant Ka; pH 7.0, 22° C.
[33] = tested on: all species tested; assay: Microbicidal activity (MIC versus MBC), all species tested; format: cell-based; conditions: in words; from difference between MICs and MBCs
From the text: The minimal bactericidal concentration (MBC) has been determined for some of these designed compounds according to NCCLS guideline (Lorian, V. 1996 Antibiotics in laboratory medicine (The Williams & Wilkins Co., Baltimore, Md.)). The difference between the MICs and the MBCs has been established as an index of the bactericidal activity of an antibiotic.

[34] = tested on: Listeria monocytogenes (19115); assay: MIC, NCCLS broth microdilution; format: cell-based
[35] = tested on: AATACT; assay: DNase I footprint titration, AATACT site; format: binding; conditions: equilibrium association constant Ka; pH 7.0, 22° C.
[36] = tested on: Paecilomyces variotii (22319); assay: MIC, antifungal assay; format: cell-based
[37] = tested on: Saccharomyces cerevisiae (44773); assay: MIC, antifungal assay; format: cell-based
[38] = tested on: ACTACT; assay: DNase I footprint titration, ACTACT site; format: binding; conditions: equilibrium association constant Ka; pH 7.0, 22° C.
[39] = tested on: Enterococcus faecalis (29212); assay: MBC according to NCCLS guideline; format: cell-based
[40] = tested on: Streptococcus pneumoniae (49619); assay: MBC according to NCCLS guideline; format: cell-based
[41] = tested on: Streptococcus pneumoniae (51422) (multiple drug resistant); assay: MIC, NCCLS broth microdilution; format: cell-based
[42] = tested on: dsDNA restriction fragment; assay: dsDNA binding, DNase I footprinting on restriction fragment; conditions: in words
[43] = tested on: different species of bacteria and fungi; conditions: in words
[44] = tested on: TGGTCA; conditions: equilibrium association constant Ka; pH 7.0, 22° C.
[45] = Streptococcus pneumoniae (49619)
[46] = Corynebacterium Group A (49676)
[47] = Staphylococcus epidermidis (12228)
[48] = Enterococcus faecium (51559), vancomycin resistant
[49] = Staphylococcus aureus (33591), methicillin resistant (MRSA)
[50] = Streptococcus pyogenes (49339), Table Ia: Streptococcus Group A(49339)

For `Cn1cc(NC(=O)c2cc(NC(=O)c3cc(NC=O)cn3C)cn2C)cc1C(=O)NCCC(=N)N` [Distamycin, distamycin, reference compound], the MIC ([1]; Candida tropicalis (13803)) was >128 µg/mL, the MIC [2] was 32 µg/mL (≈ 66.5 µM) and the MIC ([3]; Candida parapsilosis (10232)) was >128 µg/mL. The MIC [4, 45] was 16 µg/mL (≈ 33.2 µM), the MIC [5] was 16 µg/mL (≈ 33.2 µM) and the MIC ([6]; Escherichia coli (25922)) was >128 µg/mL. The MIC ([7]; Bacillus cereus (11778)) was 8 µg/mL (≈ 16.6 µM), the MIC [8, 46] was 16 µg/mL (≈ 33.2 µM) and the MIC [9, 47] was 64 µg/mL (≈ 133 µM). For the same molecule, the MIC [10] was 8 µg/mL (≈ 16.6 µM), the MIC ([11]; Enterococcus faecalis (29212)) was 16 to 32 µg/mL and the MIC ([12]; Pseudomona aeruginosa (27853)) was >128 µg/mL. For the same molecule, the MIC ([13]; Bacillus subtilis (6633)) was 64 to 128 µg/mL, the MIC [14] was >128 µg/mL and the MIC ([15]; Cryptococcus neoformans (90112)) was >128 µg/mL. For the same molecule, the MIC [16] was >128 µg/mL, the MIC [17] was 8 µg/mL (≈ 16.6 µM) and the MIC [18, 48] was 128 µg/mL (≈ 266 µM). The MIC [19, 49] was 16 µg/mL (≈ 33.2 µM), the MIC [20, 50] was 32 µg/mL (≈ 66.5 µM) and the MIC ([21]; Staphylococcus aureus (29213)) was 32 µg/mL (≈ 66.5 µM).
Work on `Cn1cc(NC(=O)c2cc(NC(=O)CN=C(N)N)cn2C)cc1C(=O)NCCC(=N)N` [Netropsin, netropsin, reference compound] yielded an MIC ([1]; Candida tropicalis) of 16 µg/mL (≈ 37.2 µM), an MIC ([3]; Lodderomyces parapsilosis) of 16 µg/mL (≈ 37.2 µM) and an MIC ([4]; Streptococcus pneumoniae) of 0.125 µg/mL (≈ 0.29 µM). It also gave an MIC ([6]; Escherichia coli) of 2 µg/mL (≈ 4.65 µM), an MIC ([7]; Bacillus cereus) of 2 µg/mL (≈ 4.65 µM) and an MIC ([8]; Corynebacterium) of 0.5 µg/mL (≈ 1.16 µM). The MIC ([9]; Staphylococcus epidermidis) was 2 to 4 µg/mL (≈ 4.65 to 9.29 µM), the MIC ([11]; Enterococcus faecalis) was 2 µg/mL (≈ 4.65 µM) and the MIC [12] was > 128 µg/mL. For the same molecule, the MIC ([13]; Bacillus subtilis) was 4 µg/mL (≈ 9.29 µM), the MIC ([15]; Cryptococcus neoformans) was 4 µg/mL (≈ 9.29 µM) and the MIC ([18]; Enterococcus faecium) was 8 µg/mL (≈ 18.6 µM). For the same molecule, the MIC ([19]; Staphylococcus aureus, MRSA) was 4 µg/mL (≈ 9.29 µM), the MIC ([20]; Streptococcus pyogenes) was 8 µg/mL (≈ 18.6 µM) and the MIC ([21]; Staphylococcus aureus) was 4 µg/mL (≈ 9.29 µM). The MIC ([22]; Haemophilus influenzae) was 4 µg/mL (≈ 9.29 µM).
`CN(C)CCCNC(=O)c1cc(NC(=O)c2cc(NC(=O)c3cc(NC(=O)c4nsc(NCCCN)c4Cl)cn3C)cn2C)cn1C` [V-b] showed an MIC [23] of 4 to 8 µg/mL, an MIC [24] of 4 µg/mL (≈ 5.83 µM) and an MIC [25] of 32 µg/mL (≈ 46.6 µM). The MBC [26] was 0.5 µg/mL (≈ 0.729 µM), the MBC [27] was 4 µg/mL (≈ 5.83 µM) and the MIC [4, 45] was 0.5 µg/mL (≈ 0.729 µM). For the same molecule, the MBC [28] was 4 µg/mL (≈ 5.83 µM), the MBC [29] was 16 µg/mL (≈ 23.3 µM) and the “Binding Constant, sequence AGTACT” value [30] was 3e+09 M⁻¹. The MIC [5] was 4 µg/mL (≈ 5.83 µM), the MIC [31] was 16 µg/mL (≈ 23.3 µM) and the MIC ([6]; Escherichia coli (25922)) was >128 µg/mL. For the same molecule, the “Binding Constant, sequence ATTACT” value [32] was 1e+08 M⁻¹, the MIC ([7]; Bacillus cereus (11778)) was 0.5 µg/mL (≈ 0.729 µM) and the Microbicidal activity [33] was “microbicidal agents for all species tested”. The MIC [8, 46] was 0.5 µg/mL (≈ 0.729 µM), the MIC [9, 47] was 2 µg/mL (≈ 2.91 µM) and the MIC [10] was 0.125 µg/mL (≈ 0.182 µM). For the same molecule, the MIC [34] was 8 µg/mL (≈ 11.7 µM), the “Binding Constant, sequence AATACT” value [35] was 1e+08 M⁻¹ and the MIC [36] was 0.5 µg/mL (≈ 0.729 µM). For the same molecule, the MIC ([11]; Enterococcus faecalis (29212)) was 1 µg/mL (≈ 1.46 µM), the MIC ([12]; Pseudomona aeruginosa (27853)) was >128 µg/mL and the MIC [37] was 16 µg/mL (≈ 23.3 µM). The “Binding Constant, sequence ACTACT” value [38] was 2e+08 M⁻¹, the MBC [39] was >4 µg/mL and the MIC ([13]; Bacillus subtilis (6633)) was 0.5 to 1 µg/mL. It also gave an MIC [14] of 4 µg/mL (≈ 5.83 µM), an MBC [40] of 0.5 µg/mL (≈ 0.729 µM) and an MIC ([17]; Clostridium perfringens (13124), anaerobe) of 1 µg/mL (≈ 1.46 µM). The MIC [18, 48] was 2 to 4 µg/mL, the MIC [19, 49] was 4 µg/mL (≈ 5.83 µM) and the MIC [20, 50] was 0.25 µg/mL (≈ 0.364 µM). The MIC ([21]; Staphylococcus aureus (29213)) was 2 µg/mL (≈ 2.91 µM), the MIC ([22]; Haemophilus influenzae (49247)) was 32 µg/mL (≈ 46.6 µM) and the MIC [41] was 1 µg/mL (≈ 1.46 µM).
With `CN(C)CCCNC(=O)CCNC(=O)c1cc(NC(=O)c2cc(NC(=O)c3nsc(Cl)c3Cl)cn2C)cn1C` [V-cc] the dsDNA binding [42] was “good binder for dsDNA” and the Anti-pathogenic properties [43] was “significant anti-pathogenic properties”.
In the case of `CN(C)CCCNC(=O)CCNC(=O)c1cc(NC(=O)c2cc(NC(=O)c3cc(NC(=O)c4cc(NC(=O)c5nsc(Cl)c5Cl)cn4C)cn3C)cn2C)cn1C` [V-t], the “Binding Constant, sequence TGGTCA” value [44] is reported as 1e+10 M⁻¹, the “Binding Constant, sequence AGTACT” value [30] is reported as 2e+08 M⁻¹ and the “Binding Constant, sequence ATTACT” value [32] is reported as 2e+08 M⁻¹. For the same molecule, the “Binding Constant, sequence AATACT” value [35] was 2e+08 M⁻¹ and the “Binding Constant, sequence ACTACT” value [38] was 2e+08 M⁻¹.
With `CN(C)CCCNC(=O)CCNC(=O)c1cc(NC(=O)c2cc(NC(=O)c3cc(NC(=O)c4nc(NC(=O)CCCNC(=O)c5cc(NC(=O)c6cc(NC(=O)c7nsc(Cl)c7Cl)cn6C)cn5C)cn4C)cn3C)cn2C)cn1C` [VI-c] the “Sequence preference of binding” value [42] was “bind ATTACT, and AATACT preferentially to ACTACT and AGTACT”, the “Binding Constant, sequence AGTACT” value [30] was 2e+08 M⁻¹ and the “Binding Constant, sequence ATTACT” value [32] was 1e+10 M⁻¹. The “Binding Constant, sequence AATACT” value [35] was 1e+09 M⁻¹ and the “Binding Constant, sequence ACTACT” value [38] was 1e+08 M⁻¹.
